Consider 19 molecules from patent publication US10030047B2 (Hoffmann-La Roche Inc., priority 2015, dated 2018).

In brackets after ≈: the same amount, converted by molar mass.

This experiment concerns A. baumannii strain ATCC19606. The experiment in a line: Minimum inhibitory concentration (MIC) determination, microbroth dilution (CLSI). The class given is cell-based. To be noted: Acinetobacter baumannii; A. baumannii ATCC19606; CAMHB; read after 20 hours; >=80% growth inhibition; read-out: ATCC19606 MIC. The procedure, abridged: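 CLSI broth microdilution in cation-adjusted Mueller Hinton broth with twofold compound dilutions and ~5×10^5 CFU/ml inoculum, incubated at 35±2 °C. MIC read after 20 h as lowest concentration inhibiting ≥80% of growth, by eye and OD 600 nm.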
Background: Dilution methods test growth across graded concentrations, often in twofold steps.
Regarding `CN1C(=O)[C@H](CCCCN)NC(=O)[C@H](CCCN)NCc2cccnc2Sc2c(Cl)ccc(-c3ccncc3)c2CNC(=O)[C@@H]1Cc1c[nH]c2ccccc12` [Example 190, (11S,14S,17S)-14-(4-Amino-butyl)-11-(3-amino-propyl)-25-chloro-17-(1H-indol-3-ylmethyl)-16-methyl-22-pyridin-4-yl-2-thia-4,10,13,16,19-pentaaza-tricyclo[19.4.0.0*3,8*]pentacosa-1(21),3,5,7,22,24-hexaene-12,15,18-trione], the MIC (as a rule, the lowest concentration found to suppress growth) was determined as 0.12 µg/mL (≈ 0.153 µM).
In the case of `CN1C(=O)[C@H](CCCCN)NC(=O)[C@H](CCCN)NCc2cccnc2Sc2c(Cl)ccc(-c3cccnc3)c2CNC(=O)[C@@H]1Cc1c[nH]c2ccccc12` [Example 191, (11S,14S,17S)-14-(4-Amino-butyl)-11-(3-amino-propyl)-25-chloro-17-(1H-indol-3-ylmethyl)-16-methyl-22-pyridin-3-yl-2-thia-4,10,13,16,19-pentaaza-tricyclo[19.4.0.0*3,8*]pentacosa-1(25),3(8),4,6,21,23-hexaene-12,15,18-trione], the MIC is 0.12 µg/mL (≈ 0.153 µM).
Take `CN1C(=O)[C@H](CCCCN)NC(=O)[C@H](CCCN)NCc2ccccc2Sc2nc(N3CCOCC3)ccc2CNC(=O)[C@@H]1Cc1c[nH]c2ccccc12` [Example 192]: the MIC amounted to 64 µg/mL (≈ 84.7 µM).
For the molecule `CN1C(=O)[C@H](CCCCN)NC(=O)[C@H](CCCN)NCc2ccccc2Sc2ccnc(N3CCOCC3)c2CNC(=O)[C@@H]1Cc1c[nH]c2ccccc12` [Example 193], the MIC worked out at 64 µg/mL (≈ 84.7 µM).
The result for `Cc1[nH]c2ccccc2c1C[C@H]1C(=O)NCc2cc(-c3cncc(S(C)(=O)=O)c3)cc(Cl)c2Sc2ncccc2CN[C@@H](CCCN)C(=O)N[C@@H](CCCCN)C(=O)N1C` [Example 199, (11S,14S,17S)-14-(4-Amino-butyl)-11-(3-amino-propyl)-25-chloro-23-(5-methanesulfonyl-pyridin-3-yl)-16-methyl-17-(2-methyl-1H-indol-3-ylmethyl)-2-thia-4,10,13,16,19-pentaaza-tricyclo[19.4.0.0*3,8*]pentacosa-1(25),3(8),4,6,21,23-hexaene-12,15,18-trione] reads 1 µg/mL (≈ 1.14 µM); that for `Cc1[nH]c2ccccc2c1C[C@H]1C(=O)NCc2c(-c3cccnc3)ccc(Cl)c2Sc2ncccc2CN[C@@H](CCCN)C(=O)N[C@@H](CCCCN)C(=O)N1C` [Example 200, (11S,14S,17S)-14-(4-Amino-butyl)-11-(3-amino-propyl)-25-chloro-16-methyl-17-(2-methyl-1H-indol-3-ylmethyl)-22-pyridin-3-yl-2-thia-4,10,13,16,19-pentaaza-tricyclo[19.4.0.0*3,8*]pentacosa-1(25),3(8),4,6,21,23-hexaene-12,15,18-trione], 0.12 µg/mL (≈ 0.151 µM).
Turning to `Cc1[nH]c2ccccc2c1C[C@H]1C(=O)NCc2c(-c3ccncc3)ccc(Cl)c2Sc2ncccc2CN[C@@H](CCCN)C(=O)N[C@@H](CCCCN)C(=O)N1C` [Example 202, (11S,14S,17S)-14-(4-Amino-butyl)-11-(3-amino-propyl)-25-chloro-16-methyl-17-(2-methyl-1H-indol-3-ylmethyl)-22-pyridin-4-yl-2-thia-4,10,13,16,19-pentaaza-tricyclo[19.4.0.0*3,8*]pentacosa-1(25),3(8),4,6,21,23-hexaene-12,15,18-trione], the minimal inhibitory concentration (MIC) amounted to 0.12 µg/mL (≈ 0.151 µM).
Consider `Cc1[nH]c2ccccc2c1C[C@H]1C(=O)NCc2cc(-c3ccnc(N4CCN(C)CC4)c3)cc(Cl)c2Sc2ncccc2CN[C@@H](CCCN)C(=O)N[C@@H](CCCCN)C(=O)N1C` [Example 203, (7S,10S,13S)— 10-(4-aminobutyl)-7-(3-aminopropyl)-20-chloro-6,7,9,10,12,13,15,16-octahydro-12-methyl-13-[(2-methyl-1H-indol-3-yl)methyl]-18-[2-(4-methyl-1-piperazinyl)-4-pyridinyl]pyrido[2,3-b][1,5,8,11,14]benzothiatetraazacycloheptadecine-8,11,14(5H)-trione], for which the MIC is 1 µg/mL (≈ 1.12 µM).
Turning to `CN1C(=O)[C@H](CCCCN)NC(=O)[C@H](CCCN)NCc2cccnc2Sc2cnc(N3CCOCC3)cc2CNC(=O)[C@@H]1Cc1c[nH]c2ccccc12` [Example 204, (7S,10S,13S)-13-((1H-Indol-3-yl)methyl)-10-(4-aminobutyl)-7-(3-aminopropyl)-12-methyl-18-morpholino-6,7,9,10,12,13,15,16-octahydrodipyrido[2,3-b:4′,3′-p][1,5,8,11,14]thiatetraazacycloheptadecine-8,11,14(5H)-trione], the MIC came to 64 µg/mL (≈ 84.5 µM).
For the molecule `COc1cc(-c2cc3c(cn2)Sc2ncccc2CN[C@@H](CCCN)C(=O)N[C@@H](CCCCN)C(=O)N(C)[C@@H](Cc2c[nH]c4ccccc24)C(=O)NC3)ccn1` [Example 205, (7S,10S,13S)-13-((1H-Indol-3-yl)methyl)-10-(4-aminobutyl)-7-(3-aminopropyl)-18-(2-methoxypyridin-4-yl)-12-methyl-6,7,9,10,12,13,15,16-octahydrodipyrido[2,3-b:4′,3′-p][1,5,8,11,14]thiatetraazacycloheptadecine-8,11,14(5H)-trione], the MIC was found to be 16 µg/mL (≈ 20.5 µM).
Turning to `CN1C(=O)[C@H](CCCCN)NC(=O)[C@H](CCCN)NCc2cccnc2Sc2c(Cl)cc(-c3cc(F)nc(F)c3)cc2CNC(=O)[C@@H]1Cc1c[nH]c2ccccc12` [Example 209, (11S,14S,17S)-14-(4-Amino-butyl)-11-(3-amino-propyl)-25-chloro-23-(2,6-difluoro-pyridin-4-yl)-17-(1H-indol-3-ylmethyl)-16-methyl-2-thia-4,10,13,16,19-pentaaza-tricyclo[19.4.0.0*3,8*]pentacosa-1(21),3(8),4,6,22,24-hexaene-12,15,18-trione], the minimal inhibitory concentration (MIC) came to 0.25 µg/mL (≈ 0.305 µM).
With `CNC(=O)CC[C@@H]1NCc2cccnc2Sc2c(Cl)cc(Cl)cc2CNC(=O)[C@H](Cc2c[nH]c3ccccc23)N(C)C(=O)[C@H](CCCCN)NC1=O` [Example 210, 3-[(11S,14S,17S)-14-(4-Amino-butyl)-23,25-dichloro-17-(1H-indol-3-ylmethyl)-16-methyl-12,15,18-trioxo-2-thia-4,10,13,16,19-pentaaza-tricyclo[19.4.0.0*3,8*]pentacosa-1(25),3(8),4,6,21,23-hexaen-11-yl]-N-methyl-propionamide] the figure was 16 µg/mL (≈ 20.8 µM); with `CN1C(=O)[C@H](CCCCN)NC(=O)[C@H](CCCN)NCc2cccnc2Sc2c(Cl)cc(-c3ccc(C#N)cc3)cc2CNC(=O)[C@@H]1Cc1c[nH]c2ccccc12` [Example 211, 4-[(11S,14S,17S)-14-(4-Amino-butyl)-11-(3-amino-propyl)-25-chloro-17-(1H-indol-3-ylmethyl)-16-methyl-12,15,18-trioxo-2-thia-4,10,13,16,19-pentaaza-tricyclo[19.4.0.0*3,8*]pentacosa-1(25),3(8),4,6,21,23-hexaen-23-yl]-benzonitrile], 16 µg/mL (≈ 19.8 µM); with `Cc1cc(-c2ccc(Cl)c3c2CNC(=O)[C@H](Cc2c[nH]c4ccccc24)N(C)C(=O)[C@H](CCCCN)NC(=O)[C@H](CCCN)NCc2cccnc2S3)ccn1` [Example 212, (11S,14S,17S)-14-(4-Amino-butyl)-11-(3-amino-propyl)-25-chloro-17-(1H-indol-3-ylmethyl)-16-methyl-22-(2-methyl-pyridin-4-yl)-2-thia-4,10,13,16,19-pentaaza-tricyclo[19.4.0.0*3,8*]pentacosa-1(25),3(8),4,6,21,23-hexaene-12,15,18-trione], 32 µg/mL (≈ 40.2 µM).
Regarding `CN1C(=O)[C@H](CCCCN)NC(=O)[C@H](CCCN)NCc2cccnc2Sc2c(Cl)cc(-c3ccncn3)cc2CNC(=O)[C@@H]1Cc1c[nH]c2ccccc12` [Example 213, (11S,14S,17S)-14-(4-Amino-butyl)-11-(3-amino-propyl)-25-chloro-17-(1H-indol-3-ylmethyl)-16-methyl-23-pyrimidin-4-yl-2-thia-4,10,13,16,19-pentaaza-tricyclo[19.4.0.0*3,8*]pentacosa-1(21),3,5,7,22,24-hexaene-12,15,18-trione], the MIC was found to be 2 µg/mL (≈ 2.55 µM).
As for `CN1C(=O)[C@H](CCCCN)NC(=O)[C@H](CCCN)NCc2cccnc2Sc2c(Cl)cc(-c3ccc(S(N)(=O)=O)cc3)cc2CNC(=O)[C@@H]1Cc1c[nH]c2ccccc12` [Example 214, 4-[(11S,14S,17S)-14-(4-Amino-butyl)-11-(3-amino-propyl)-25-chloro-17-(1H-indol-3-ylmethyl)-16-methyl-12,15,18-trioxo-2-thia-4,10,13,16,19-pentaaza-tricyclo[19.4.0.0*3,8*]pentacosa-1(21),3,5,7,22,24-hexaen-23-yl]-benzenesulfonamide], the MIC was 0.25 µg/mL (≈ 0.291 µM).
With `CN1C(=O)[C@H](CCCCN)NC(=O)[C@H](CCC(N)=O)NCc2cccnc2Sc2c(Cl)ccc(-c3cccnc3)c2CNC(=O)[C@@H]1Cc1c[nH]c2ccccc12` [Example 221, 3-[(11S,14S,17S)-14-(4-Amino-butyl)-25-chloro-17-(1H-indol-3-ylmethyl)-16-methyl-12,15,18-trioxo-22-pyridin-3-yl-2-thia-4,10,13,16,19-pentaaza-tricyclo[19.4.0.0*3,8*]pentacosa-1(25),3(8),4,6,21,23-hexaen-11-yl]-propionamide] the figure was 0.25 µg/mL (≈ 0.314 µM).
As to `CN1C(=O)[C@H](CCCCN)NC(=O)[C@H](CCCN)NCc2cccnc2Sc2c(Cl)ccc(-c3ccnc(F)c3)c2CNC(=O)[C@@H]1Cc1c[nH]c2ccccc12` [Example 222, (11S,14S,17S)-14-(4-Amino-butyl)-11-(3-amino-propyl)-25-chloro-22-(2-fluoro-pyridin-4-yl)-17-(1H-indol-3-ylmethyl)-16-methyl-2-thia-4,10,13,16,19-pentaaza-tricyclo[19.4.0.0*3,8*]pentacosa-1(25),3(8),4,6,21,23hexaene-12,15,18-trione], the MIC is 0.12 µg/mL (≈ 0.15 µM).
Regarding `CN1C(=O)[C@H](CCCCN)NC(=O)[C@H](CCCN)NCc2cccnc2Sc2c(Cl)cc(-c3ccnc(N)c3)cc2CNC(=O)[C@@H]1Cc1c[nH]c2ccccc12` [Example 223, (11S,14S,17S)-14-(4-Amino-butyl)-11-(3-amino-propyl)-23-(2-amino-pyridin-4-yl)-25-chloro-17-(1H-indol-3-ylmethyl)-16-methyl-2-thia-4,10,13,16,19-pentaaza-tricyclo[19.4.0.0*3,8*]pentacosa-1(21),3,5,7,22,24-hexaene-12,15,18-trione], the MIC is 1 µg/mL (≈ 1.25 µM).
